Data published in US8236860B2, “Inhibition of the survival of pancreatic cancer by cyclohexenone compounds from Antrodia camphorata” (Golden Biotechnology Corporation, priority 2009, dated 2012).

System: pancreatic cancer cell line BxPC-3
Experiment: In vitro survival assay (MTT) for anti-pancreatic cancer effects
Type: cell-based
Conditions: Homo sapiens, BxPC-3 cells, 48 hours treatment, 0.03-30 μg/ml, read-out: IC50 (half inhibition concentration), survival of pancreatic cancer cells
Method: The compound 4--2,3-dimethoxy-6-methyl-5-(3,7,11-trimethyl-dodeca-2,6,10-trienyl)-cyclohex-2-enone of the formula (2) is explained below as an example for the present invention. The anti-cancer effects of 4--2,3-dimethoxy-6-methyl-5-(3,7,11-trimethyl-dodeca-2,6,10-trienyl)-cyclohex-2-enone was assessed using 3-(4,5-dimethylthiazol-2-yl)-2,5-diphenyltetrazolium bromide MTT) assay according to the anti-cancer drug screening model of National Cancer Institute (NCI) to analyze survival rates on pancreatic cancer cell line BxPC-3. […] Therefore, cyclohexenone compounds from Antrodia camphorata can be used for inhibiting the survival of pancreatic cancer cells and further be applied for the treatment of pancreatic cancer. The details of the examples are described as follows:
Inhibiting effects of pancreatic cancer cells by cyclohexenone compounds of Antrodia camphorata from example 1 were assessed according to the anticancer-drug screening model of National Cancer Institute (NCI). […] Survival of cell was analyzed using MTT assay. […]
The BxPC-3 cells were cultivated in RPMI 1640 medium supplemented with 10% fetal bovine serum, 100 IU/ml of Penicillin and […] of Streptomycin at 37° C., 5% CO2 for 24 hours. […] The absorbances were measured at 570 nm with an ELISA Reader to determine the survival rates.

Structure (SMILES): COC1=C(OC)C(O)C(C/C=C(\C)CC/C=C(\C)CCC=C(C)C)C(C)C1=O (stereo not shown) [formula 2, 4--2,3-dimethoxy-6-methyl-5-(3,7,11-trimethyl-dodeca-2,6,10-trienyl)-cyclohex-2-enone]
- IC50: 1.44 µg/mL
